Assays:
SNB-19 = format: cell-based; conditions: SNB-19, CNS
M14 = format: cell-based; conditions: M14, Melanoma
OVCAR-4 = format: cell-based; conditions: OVCAR-4, Ovarian
BT-549 = format: cell-based; conditions: BT-549, Breast
[1] = DPPH radical scavenging assay; conditions: 25 µM test compound, 0.1 mM DPPH, acetonitrile, 30 min
In short: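 Compounds at 25 µM in acetonitrile mixed 1:2 with 0.1 mM DPPH in acetonitrile, kept 30 min in the dark at room temperature. Absorbance read at 517 nm; % scavenging = (Ac − As)/Ac × 100, Ac being DPPH blank. Ascorbic acid positive control.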

CCRF-CEM = conditions: for GI50: Leukemia; for CC50: read-out: 50% lethal concentration (LC50), Leukemia
K-562 = conditions: K-562, Leukemia; for CC50: read-out: 50% lethal concentration (LC50)
RPMI-8226 = conditions: RPMI-8226, Leukemia; for CC50: read-out: 50% lethal concentration (LC50)
A549/ATCC = conditions: for Total growth inhibition (TGI): Non-Small Cell Lung; for GI50: Non-Small-Cell Lung; for CC50: read-out: 50% lethal concentration (LC50), Non-Small Cell Lung
NCI-H226 = conditions: for Total growth inhibition (TGI) / CC50: NCI-H226, Non-Small Cell Lung; for GI50: NCI-H226, Non-Small-Cell Lung; for CC50: read-out: 50% lethal concentration (LC50)
NCI-H23 = conditions: for Total growth inhibition (TGI) / CC50: NCI-H23, Non-Small Cell Lung; for GI50: NCI-H23, Non-Small-Cell Lung; for CC50: read-out: 50% lethal concentration (LC50)
COLO 205 = conditions: COLO 205, Colon
HT29 = conditions: HT29, Colon; for CC50: read-out: 50% lethal concentration (LC50)
SW-620 = conditions: SW-620, Colon
SF-295 = conditions: SF-295, CNS; for CC50: read-out: 50% lethal concentration (LC50)
SK-MEL-2 = conditions: SK-MEL-2, Melanoma
SK-MEL-5 = conditions: SK-MEL-5, Melanoma; for CC50: read-out: 50% lethal concentration (LC50)
UACC-62 = conditions: UACC-62, Melanoma; for CC50: read-out: 50% lethal concentration (LC50)
OVCAR-5 = conditions: OVCAR-5, Ovarian; for CC50: read-out: 50% lethal concentration (LC50)
OVCAR-8 = conditions: OVCAR-8, Ovarian; for CC50: read-out: 50% lethal concentration (LC50)
NCI/ADR-RES = conditions: for GI50 / Total growth inhibition (TGI): Ovarian; for CC50: read-out: 50% lethal concentration (LC50), Ovarian
SK-OV-3 = conditions: SK-OV-3, Ovarian; for CC50: read-out: 50% lethal concentration (LC50)
786-0 = conditions: 786-0, Renal; for CC50: read-out: 50% lethal concentration (LC50)
RXF 393 = conditions: RXF 393, Renal; for CC50: read-out: 50% lethal concentration (LC50)
SN12C = conditions: for GI50 / Total growth inhibition (TGI): Renal; for CC50: read-out: 50% lethal concentration (LC50), Renal
UO-31 = conditions: UO-31, Renal; for CC50: read-out: 50% lethal concentration (LC50)
DU-145 = conditions: DU-145, Prostate; for CC50: read-out: 50% lethal concentration (LC50)
MCF7 = conditions: MCF7, Breast; for CC50: read-out: 50% lethal concentration (LC50)
[2] = read-out: 50% lethal concentration (LC50)

In the case of `C=C1CCC2C3(C)COC(c4cn(-c5ccccc5)nc4-c4cccc(Br)c4)OC3CCC2(C)C1CC=C1C(=O)OCC1O` (centres unmarked) [1e], the GI50 (SNB-19) is reported as 2.17 µM, the Total growth inhibition (TGI) (SNB-19) is reported as 5.24 µM and the CC50 (SNB-19; [2]) is reported as 17.2 µM. The GI50 (M14) was 1.86 µM, the Total growth inhibition (TGI) (M14) was 4.12 µM and the GI50 (OVCAR-4) was 2.49 µM. The CC50 (OVCAR-4; [2]) was > 100 µM, the GI50 (BT-549) was 1.46 µM and the Total growth inhibition (TGI) (BT-549) was 2.99 µM. For the same compound, the “% DPPH radical scavenging activity” value [1] was 58.75%, the GI50 (CCRF-CEM) was 0.7 µM and the CC50 (CCRF-CEM) was > 100 µM. The GI50 (K-562) was 2.89 µM, the Total growth inhibition (TGI) (K-562) was > 100 µM and the CC50 (K-562) was > 100 µM. For the same compound, the GI50 (RPMI-8226) was 2.75 µM, the Total growth inhibition (TGI) (RPMI-8226) was > 100 µM and the CC50 (RPMI-8226) was > 100 µM. For the same compound, the Total growth inhibition (TGI) (A549/ATCC) was 19.9 µM, the GI50 (A549/ATCC) was 3.07 µM and the CC50 (A549/ATCC) was > 100 µM. The Total growth inhibition (TGI) (NCI-H226) was 3.43 µM, the GI50 (NCI-H226) was 1.75 µM and the CC50 (NCI-H226) was 6.71 µM. For the same compound, the Total growth inhibition (TGI) (NCI-H23) was 4.07 µM, the GI50 (NCI-H23) was 1.9 µM and the CC50 (NCI-H23) was 8.74 µM. It also gave a GI50 (COLO 205) of 2.09 µM, a Total growth inhibition (TGI) (COLO 205) of 4.36 µM and a GI50 (HT29) of 1.66 µM. For the same compound, the Total growth inhibition (TGI) (HT29) was 3.46 µM, the CC50 (HT29) was 7.23 µM and the GI50 (SW-620) was 1.72 µM. The Total growth inhibition (TGI) (SW-620) was 3.64 µM, the GI50 (SF-295) was 1.36 µM and the Total growth inhibition (TGI) (SF-295) was 2.68 µM. For the same compound, the CC50 (SF-295) was 5.3 µM, the GI50 (SK-MEL-2) was 1.78 µM and the Total growth inhibition (TGI) (SK-MEL-2) was 3.38 µM. For the same compound, the GI50 (SK-MEL-5) was 1.54 µM, the Total growth inhibition (TGI) (SK-MEL-5) was 2.88 µM and the CC50 (SK-MEL-5) was 5.39 µM. The GI50 (UACC-62) was 1.68 µM, the Total growth inhibition (TGI) (UACC-62) was 3.4 µM and the CC50 (UACC-62) was 6.9 µM. The GI50 (OVCAR-5) was 1.85 µM, the Total growth inhibition (TGI) (OVCAR-5) was 4.35 µM and the CC50 (OVCAR-5) was 47.7 µM. The GI50 (OVCAR-8) was 1.76 µM, the Total growth inhibition (TGI) (OVCAR-8) was 4.22 µM and the CC50 (OVCAR-8) was > 100 µM. For the same compound, the GI50 (NCI/ADR-RES) was 2.15 µM, the Total growth inhibition (TGI) (NCI/ADR-RES) was 5.37 µM and the CC50 (NCI/ADR-RES) was > 100 µM. The GI50 (SK-OV-3) was 4.16 µM, the Total growth inhibition (TGI) (SK-OV-3) was 48.3 µM and the CC50 (SK-OV-3) was > 100 µM. The GI50 (786-0) was 2.59 µM, the CC50 (786-0) was > 100 µM and the GI50 (RXF 393) was 1.18 µM. It also gave a Total growth inhibition (TGI) (RXF 393) of 2.93 µM, a CC50 (RXF 393) of 5.51 µM and a GI50 (SN12C) of 1.57 µM. The Total growth inhibition (TGI) (SN12C) was 2.55 µM, the CC50 (SN12C) was 8.12 µM and the GI50 (UO-31) was 1.45 µM. The Total growth inhibition (TGI) (UO-31) was 5.34 µM, the CC50 (UO-31) was 6.83 µM and the GI50 (DU-145) was 2.12 µM. For the same compound, the Total growth inhibition (TGI) (DU-145) was 4.57 µM, the CC50 (DU-145) was 9.82 µM and the GI50 (MCF7) was 1.77 µM. For the same compound, the Total growth inhibition (TGI) (MCF7) was > 100 µM and the CC50 (MCF7) was > 100 µM.
`C=C1CCC2C3(C)COC(c4cn(-c5ccccc5)nc4-c4ccc(F)cc4)OC3CCC2(C)C1CC=C1C(=O)OCC1O` (centres unmarked) [1f, 3,19-(N-Phenyl-3-(4-fluorophenyl)-pyrazole) Acetal of Andrographolide] gave a GI50 (SNB-19) of 1.44 µM, a Total growth inhibition (TGI) (SNB-19) of 2.91 µM and a GI50 (M14) of 1.5 µM. The Total growth inhibition (TGI) (M14) was 3.23 µM, the GI50 (OVCAR-4) was 1.75 µM and the Total growth inhibition (TGI) (OVCAR-4) was 4.08 µM. The GI50 (BT-549) was 1.31 µM, the Total growth inhibition (TGI) (BT-549) was 3.18 µM and the “% DPPH radical scavenging activity” value [1] was 58.15%. The GI50 (CCRF-CEM) was 0.4 µM, the CC50 (CCRF-CEM) was > 100 µM and the GI50 (K-562) was 2.34 µM. The Total growth inhibition (TGI) (K-562) was > 100 µM, the CC50 (K-562) was > 100 µM and the GI50 (RPMI-8226) was 0.49 µM. For the same compound, the Total growth inhibition (TGI) (RPMI-8226) was > 100 µM, the CC50 (RPMI-8226) was > 100 µM and the Total growth inhibition (TGI) (A549/ATCC) was 5.92 µM. It also gave a GI50 (A549/ATCC) of 2.14 µM, a CC50 (A549/ATCC) of 51.5 µM and a Total growth inhibition (TGI) (NCI-H226) of 2.94 µM. The GI50 (NCI-H226) was 1.51 µM, the CC50 (NCI-H226) was 5.75 µM and the Total growth inhibition (TGI) (NCI-H23) was 3.32 µM. For the same compound, the GI50 (NCI-H23) was 1.7 µM, the CC50 (NCI-H23) was 6.46 µM and the GI50 (COLO 205) was 1.48 µM. It also gave a Total growth inhibition (TGI) (COLO 205) of 3.2 µM, a GI50 (HT29) of 2.38 µM and a Total growth inhibition (TGI) (HT29) of 7.63 µM. For the same compound, the CC50 (HT29) was 93.9 µM, the GI50 (SW-620) was 4.49 µM and the Total growth inhibition (TGI) (SW-620) was > 100 µM. For the same compound, the CC50 (SW-620; [2]) was > 100 µM, the GI50 (SF-295) was 1.55 µM and the Total growth inhibition (TGI) (SF-295) was 2.92 µM. For the same compound, the CC50 (SF-295) was 5.49 µM, the GI50 (SK-MEL-2) was 1.69 µM and the Total growth inhibition (TGI) (SK-MEL-2) was 3.1 µM. For the same compound, the GI50 (SK-MEL-5) was 1.62 µM, the Total growth inhibition (TGI) (SK-MEL-5) was 2.98 µM and the CC50 (SK-MEL-5) was 5.47 µM. For the same compound, the GI50 (UACC-62) was 1.58 µM, the Total growth inhibition (TGI) (UACC-62) was 3.09 µM and the CC50 (UACC-62) was 6.05 µM. The GI50 (OVCAR-5) was 1.74 µM, the Total growth inhibition (TGI) (OVCAR-5) was 3.88 µM and the CC50 (OVCAR-5) was 8.66 µM. For the same compound, the GI50 (OVCAR-8) was 1.48 µM, the Total growth inhibition (TGI) (OVCAR-8) was 2.95 µM and the CC50 (OVCAR-8) was 5.86 µM. The GI50 (NCI/ADR-RES) was 1.54 µM, the Total growth inhibition (TGI) (NCI/ADR-RES) was 3.57 µM and the CC50 (NCI/ADR-RES) was 8.29 µM. The GI50 (SK-OV-3) was 1.88 µM, the Total growth inhibition (TGI) (SK-OV-3) was 5.48 µM and the CC50 (SK-OV-3) was 30.7 µM. For the same compound, the GI50 (786-0) was 1.6 µM, the Total growth inhibition (TGI) (786-0) was 3.34 µM and the CC50 (786-0) was 6.96 µM. The GI50 (RXF 393) was 1.6 µM, the Total growth inhibition (TGI) (RXF 393) was 3.04 µM and the CC50 (RXF 393) was 5.78 µM. For the same compound, the GI50 (SN12C) was 1.55 µM, the Total growth inhibition (TGI) (SN12C) was 3.27 µM and the CC50 (SN12C) was 6.93 µM. It also gave a GI50 (UO-31) of 1.6 µM, a Total growth inhibition (TGI) (UO-31) of 3.34 µM and a CC50 (UO-31) of 5.14 µM. It also gave a GI50 (DU-145) of 1.82 µM, a Total growth inhibition (TGI) (DU-145) of 3.44 µM and a CC50 (DU-145) of 6.52 µM. For the same compound, the GI50 (MCF7) was 1.43 µM, the Total growth inhibition (TGI) (MCF7) was 4.13 µM and the CC50 (MCF7) was 63.1 µM.

— publication PMC12298351, “Novel 3,19-(N-Phenyl-3-(4-fluorophenyl)-pyrazole) Acetal of Andrographolide Promotes Cell Cycle Arrest and Apoptosis in MDA-MB-231 Breast Cancer Cells” (Pharmaceuticals, 2025)
